Drawing on patent publication US11578061B2, “Inhibitors of LRRK2 kinase” (Halia Therapeutics, Inc., priority 2021, dated 2023), this text covers IC50 for 23 compounds.

recombinant human LRRK2 (catalytic domain only [amino acids 970-2527], GST-tagged), sequence (Q5S007 970-2527): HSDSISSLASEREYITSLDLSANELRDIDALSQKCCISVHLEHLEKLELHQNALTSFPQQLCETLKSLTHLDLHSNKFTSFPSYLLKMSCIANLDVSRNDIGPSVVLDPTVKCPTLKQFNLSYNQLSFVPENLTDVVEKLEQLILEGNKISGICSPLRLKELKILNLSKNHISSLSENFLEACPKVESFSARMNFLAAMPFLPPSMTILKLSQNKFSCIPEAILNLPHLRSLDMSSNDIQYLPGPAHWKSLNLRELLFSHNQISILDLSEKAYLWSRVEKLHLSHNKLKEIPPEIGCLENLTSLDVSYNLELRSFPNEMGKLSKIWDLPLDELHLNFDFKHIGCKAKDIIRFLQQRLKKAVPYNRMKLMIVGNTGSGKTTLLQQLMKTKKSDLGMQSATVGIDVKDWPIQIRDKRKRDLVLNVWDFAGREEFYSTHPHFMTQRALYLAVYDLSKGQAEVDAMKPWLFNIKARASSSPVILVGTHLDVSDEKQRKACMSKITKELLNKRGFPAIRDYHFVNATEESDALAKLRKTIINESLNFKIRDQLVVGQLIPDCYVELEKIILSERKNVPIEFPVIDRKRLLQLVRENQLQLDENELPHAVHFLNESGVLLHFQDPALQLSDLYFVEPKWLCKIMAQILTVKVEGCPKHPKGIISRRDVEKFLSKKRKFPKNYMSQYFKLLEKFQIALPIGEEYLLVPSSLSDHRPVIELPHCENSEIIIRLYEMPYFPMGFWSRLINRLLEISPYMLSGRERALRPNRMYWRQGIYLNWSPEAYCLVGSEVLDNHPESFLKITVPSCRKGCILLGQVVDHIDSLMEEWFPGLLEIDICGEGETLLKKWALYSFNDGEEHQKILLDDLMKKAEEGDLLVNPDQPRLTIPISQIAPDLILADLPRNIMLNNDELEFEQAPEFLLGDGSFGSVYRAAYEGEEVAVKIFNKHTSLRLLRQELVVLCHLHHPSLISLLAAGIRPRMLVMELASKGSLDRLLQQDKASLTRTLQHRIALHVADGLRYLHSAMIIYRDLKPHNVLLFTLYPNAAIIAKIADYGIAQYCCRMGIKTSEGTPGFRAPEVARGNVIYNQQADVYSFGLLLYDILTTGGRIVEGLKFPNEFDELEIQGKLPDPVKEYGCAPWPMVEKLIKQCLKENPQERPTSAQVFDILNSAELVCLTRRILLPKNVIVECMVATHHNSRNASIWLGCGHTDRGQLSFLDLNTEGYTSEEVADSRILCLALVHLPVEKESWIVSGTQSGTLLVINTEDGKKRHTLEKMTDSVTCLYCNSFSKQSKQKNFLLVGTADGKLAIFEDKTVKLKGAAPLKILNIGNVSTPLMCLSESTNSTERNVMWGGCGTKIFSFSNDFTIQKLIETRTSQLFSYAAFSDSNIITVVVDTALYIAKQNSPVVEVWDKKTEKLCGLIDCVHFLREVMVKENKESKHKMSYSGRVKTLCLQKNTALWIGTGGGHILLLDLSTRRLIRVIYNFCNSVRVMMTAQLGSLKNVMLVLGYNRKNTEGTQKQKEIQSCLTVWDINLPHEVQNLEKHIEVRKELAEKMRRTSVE

For this experiment, the target named is recombinant human LRRK2 (catalytic domain only [amino acids 970-2527], GST-tagged) (Homo sapiens (Human), UniProt Q5S007). In words: LRRK2 Enzymatic Assay. The class given is biochemical. To be noted: LRRKtide substrate, [32P]-ATP. The essentials:
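GST-tagged catalytic domain (aa 970-2527) at 30 nM with 20 μM LRRKtide in HEPES pH 7.5/MgCl2 buffer, 1% DMSO; compounds (10 μM to 0.5 nM) preincubated 20 min, then [32P]-ATP added for 2 h at room temperature. P81 phosphocellulose capture; activity as % of vehicle, IC50 by curve fit.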
`O=C(N[C@H]1CC[C@H](COc2nc(Nc3ccc(N4CCOCC4)cc3)ncc2F)CC1)C(F)(F)F` [Example 99, 2,2,2-trifluoro-N-((1R,4R)-4-(((5-fluoro-2-((4-morpholino-phenyl)amino)pyrimidin-4-yl)oxy)methyl)cyclohexyl) acetamide]: the 50% inhibitory concentration (IC50) (in general, the midpoint of a concentration-inhibition curve) is below 0.05 µM.
The figure for `Cc1nn(C(C)(C)C#N)cc1Nc1ncc(Cl)c(OC[C@H]2CC[C@H](NC(=O)C(F)F)CC2)n1` [Example 100, N-((1R,4R)-4-(((5-chloro-2-((1-(2-cyano-propan-2-yl)-3-methyl-1H-pyrazol-4-yl)amino)pyrimidin-4-yl)oxy)methyl)cyclohexyl)-2,2-difluoro-acetamide] is below 0.05 µM; for `O=C(N[C@H]1CC[C@H](COc2nc(Nc3cccc(N4CCOCC4)c3)ncc2Cl)CC1)C(F)F` [Example 101, N-((1R,4R)-4-(((5-chloro-2-((3-morpholino-phenyl)amino)pyrimidin-4-yl)oxy)methyl)cyclohexyl)-2,2-difluoro-acetamide] it is below 0.05 µM.
On to `O=C(N[C@H]1CC[C@@H](COc2nc(Nc3ccc(N4CCOCC4)cc3)ncc2Cl)C1)C(F)F` [Example 102, N-((1S,3R)-3-(((5-chloro-2-((4-morpholino-phenyl)amino)pyrimidin-4-yl)oxy)methyl)cyclopentyl)-2,2-difluoro-acetamide], for which the IC50 was below 0.05 µM.
The figure for `FC(F)CN[C@H]1CC[C@H](COc2ccnc(Nc3ccc(N4CCOCC4)cc3)n2)CC1` [Example 103, 4-(((1R,4R)-4-((2,2-difluoro-ethyl)amino)cyclohexyl)methoxy)-N-(4-morpholino-phenyl) pyrimidin-2-amine] is below 0.05 µM; for `FC(F)(F)CN[C@H]1CC[C@H](COc2ccnc(Nc3ccc(N4CCOCC4)cc3)n2)CC1` [Example 104, N-(4-morpholino-phenyl)-4-(((1R,4R)-4-((2,2,2-trifluoroethyl)amino)cyclohexyl)methoxy) pyrimidin-2-amine] it is 0.05 to 0.2 µM.
Take `COc1cnc(Nc2ccc(N3CCOCC3)cc2)nc1OC[C@H]1CC[C@H](NCC(F)(F)F)CC1` [Example 105, 5-methoxy-N-(4-morpholino-phenyl)-4-(((1R,4R)-4-((2,2,2-trifluoroethyl)amino)cyclohexyl)methoxy) pyrimidin-2-amine]: the IC50 is 0.05 to 0.2 µM.
With `FC(F)CN[C@H]1CC[C@H](COc2nc(Nc3cccc(N4CCOCC4)c3)ncc2Cl)CC1` [Example 107, 5-chloro-4-(((1R,4R)-4-((2,2-difluoro-ethyl)amino)cyclohexyl)methoxy)-N-(3-morpholino-phenyl) pyrimidin-2-amine], the IC50 was below 0.05 µM.
The result for `FC(F)(F)CN[C@H]1CC[C@H](COc2nc(Nc3ccc(N4CCOCC4)cc3)ncc2Cl)CC1` [Example 108, 5-chloro-N-(4-morpholino-phenyl)-4-(((1R,4R)-4-((2,2,2-trifluoroethyl)amino)cyclohexyl)methoxy) pyrimidin-2-amine] reads below 0.05 µM; that for `O=C(C(F)F)N1CCC(COc2nc(Nc3ccc(N4CCOCC4)cc3)ncc2Cl)CC1` [Example 109, 1-(4-(((5-chloro-2-((4-morpholino-phenyl)amino)pyrimidin-4-yl)oxy)methyl)piperidin-1-yl)-2,2-difluoro-ethan-1-one], below 0.05 µM.
`O=C(C(F)F)N1CCC(COc2nc(Nc3cccc(N4CCOCC4)c3)ncc2Cl)CC1` [Example 110, 1-(4-(((5-chloro-2-((3-morpholino-phenyl)amino)pyrimidin-4-yl)oxy)methyl)piperidin-1-yl)-2,2-difluoro-ethan-1-one]: the IC50 was below 0.05 µM.
In the case of `Cc1nn(C(C)(C)C#N)cc1Nc1ncc(Cl)c(OCC2CCN(C(=O)C(F)F)CC2)n1` [Example 111, 2-(4-((5-chloro-4-((1-(2,2-difluoro-acetyl)piperidin-4-yl)methoxy)pyrimidin-2-yl)amino)-3-methyl-1H-pyrazol-1-yl)-2-methyl-propanenitrile], the IC50 was below 0.05 µM.
Consider `O=C(N1CCC(COc2nc(Nc3ccc(N4CCOCC4)cc3)ncc2Cl)CC1)C(F)(F)F` [Example 112, 1-(4-(((5-chloro-2-((4-morpholino-phenyl)amino)pyrimidin-4-yl)oxy)methyl)piperidin-1-yl)-2,2,2-trifluoro-ethan-1-one], for which the IC50 fell in the range of 0.05 to 0.2 µM.
As to `FC(F)CN1CCC(COc2nc(Nc3ccc(N4CCOCC4)cc3)ncc2Cl)CC1` [Example 113, 5-chloro-4-((1-(2,2-difluoroethyl)piperidin-4-yl)methoxy)-N-(4-morpholino-phenyl) pyrimidin-2-amine], the IC50 is below 0.05 µM.
As for `FC(F)(F)CN1CCC(COc2nc(Nc3ccc(N4CCOCC4)cc3)ncc2Cl)CC1` [Example 114, 5-chloro-N-(4-morpholino-phenyl)-4-((1-(2,2,2-trifluoroethyl)piperidin-4-yl)methoxy) pyrimidin-2-amine], the IC50 is above 0.4 µM.
Take `CC(N[C@H]1CC[C@H](COc2nc(Nc3ccc(N4CCOCC4)cc3)ncc2F)CC1)C(F)(F)F` (stereo partly drawn) [Example 116, 5-fluoro-N-(4-morpholino-phenyl)-4-(((1R,4R)-4-((1,1,1-trifluoro-propan-2-yl)amino)cyclohexyl)methoxy) pyrimidin-2-amine]: the IC50 lay within 0.2 to 0.4 µM.
As to `OC1CCC(COc2ccnc(Nc3ccc(N4CCOCC4)cc3)n2)CC1` (centres unmarked) [Example 117, 4-(((2-((4-morpholinophenyl)amino)pyrimidin-4-yl)oxy)methyl)cyclohexanol], the half-inhibitory concentration (IC50) lay in the range of 0.2 to 0.4 µM.
Consider `C[C@@H]1CN(c2ccc(Nc3nccc(OCC4CCC(O)CC4)n3)cc2)C[C@H](C)O1` (stereo partly drawn) [Example 118, 4-(((2-((4-((2S,6R)-2,6-dimethylmorpholino)phenyl)amino)pyrimidin-4-yl)oxy)methyl)cyclohexan-1-ol], for which the 50% inhibitory concentration (IC50) lay within 0.05 to 0.2 µM.
The figure for `Cc1nn(C(C)(C)C#N)cc1Nc1nccc(OCC2CCC(O)CC2)n1` (centres unmarked) [Example 119, 2-(4-((4-((4-hydroxycyclohexyl)methoxy)pyrimidin-2-yl)amino)-3-methyl-1H-pyrazol-1-yl)-2-methylpropanenitrile] is 0.2 to 0.4 µM; for `C[C@@H]1CN(c2ccc(Nc3ncc(Cl)c(OCC4CCC(O)CC4)n3)cc2)C[C@H](C)O1` (stereo partly drawn) [Example 120, 4-(((5-chloro-2-((4-((2S,6R)-2,6-dimethylmorpholino)phenyl)amino)pyrimidin-4-yl)oxy)methyl)cyclohexan-1-ol] it is below 0.05 µM.
The result for `Cc1nn(C(C)(C)C#N)cc1Nc1ncc(Cl)c(OCC2CCC(O)CC2)n1` (centres unmarked) [Example 121, 2-(4-((5-chloro-4-((4-hydroxycyclohexyl)methoxy)pyrimidin-2-yl)amino)-3-methyl-1H-pyrazol-1-yl)-2-methylpropanenitrile] reads below 0.05 µM; that for `Cc1nn(C2CC(C#N)C2)cc1Nc1ncc(Cl)c(OCC2CCC(O)CC2)n1` (centres unmarked) [Example 122, 3-(4-((5-chloro-4-((4-hydroxycyclohexyl)methoxy)pyrimidin-2-yl)amino)-3-methyl-1H-pyrazol-1-yl)cyclobutane-1-carbonitrile], below 0.05 µM; that for `OC1CCC(COc2nc(Nc3ccc(N4CCOCC4)cc3)ncc2F)CC1` (centres unmarked) [Example 123, 4-(((5-fluoro-2-((4-morpholinophenyl)amino)pyrimidin-4-yl)oxy)methyl)cyclohexan-1-ol], 0.05 to 0.2 µM.
